In ChEMBL document CHEMBL1138590, “Discovery of novel dihydro-9,10-ethano-anthracene carboxamides as glucocorticoid receptor modulators” (Bioorg Med Chem Lett, 2009):

How the values were obtained:
Glucocorticoid receptor [1] = molecular target: T1, Glucocorticoid receptor (Homo sapiens, UniProt P04150); assay: Transrepression activity at GR in IL-1-beta-stimulated human A549 cells assessed as inhibition of NF-kappaB-dependent E-selectin transcription by luciferase reporter gene assay; format: cell-based
T1 sequence (P04150 whole entry): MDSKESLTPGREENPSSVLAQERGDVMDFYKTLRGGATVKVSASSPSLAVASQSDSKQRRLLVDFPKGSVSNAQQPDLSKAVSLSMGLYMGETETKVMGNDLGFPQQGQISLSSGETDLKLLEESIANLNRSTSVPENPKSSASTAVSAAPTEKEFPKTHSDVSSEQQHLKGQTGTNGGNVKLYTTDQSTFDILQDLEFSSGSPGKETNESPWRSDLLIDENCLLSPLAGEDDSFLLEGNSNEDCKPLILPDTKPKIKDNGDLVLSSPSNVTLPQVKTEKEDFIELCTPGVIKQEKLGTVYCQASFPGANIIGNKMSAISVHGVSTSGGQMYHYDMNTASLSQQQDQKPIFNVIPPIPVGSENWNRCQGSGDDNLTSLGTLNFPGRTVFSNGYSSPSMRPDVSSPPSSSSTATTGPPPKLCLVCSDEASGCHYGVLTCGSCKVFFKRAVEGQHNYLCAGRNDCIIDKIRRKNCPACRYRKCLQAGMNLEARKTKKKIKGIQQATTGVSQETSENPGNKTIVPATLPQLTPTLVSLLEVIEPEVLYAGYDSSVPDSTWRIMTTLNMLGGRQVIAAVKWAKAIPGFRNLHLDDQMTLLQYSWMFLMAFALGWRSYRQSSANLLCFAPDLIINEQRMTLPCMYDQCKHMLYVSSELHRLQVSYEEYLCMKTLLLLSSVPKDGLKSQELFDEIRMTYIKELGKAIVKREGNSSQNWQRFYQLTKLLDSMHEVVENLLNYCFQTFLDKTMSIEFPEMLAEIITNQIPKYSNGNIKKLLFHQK

Glucocorticoid receptor [2] = molecular target: T1, Glucocorticoid receptor; assay: Displacement of FITC-dexamethasone from human recombinant glucocorticoid receptor alpha by fluorescence polarization assay
Glucocorticoid receptor [3] = molecular target: T1, Glucocorticoid receptor; assay: Transrepression activity at GR in PMA-stimulated human A549 cells assessed as inhibition of AP1 response element-induced luciferase reporter gene activity; format: cell-based
Glucocorticoid receptor [4] = molecular target: T1, Glucocorticoid receptor; assay: Agonist activity at GR ligand binding domain expressed in human NP1 cells assessed as glucocorticoid response element transactivation by GAL4 luciferase reporter gene assay; format: cell-based
[5] = molecular target: T2, Mineralocorticoid receptor (Homo sapiens) (UniProt P08235); assay: Antagonist activity at mineralocorticoid receptor in human A549 cells assessed as inhibition of 1.25 nM aldosterone-induced effect at 0.1 uM; format: functional, cell-based
T2 sequence (whole entry): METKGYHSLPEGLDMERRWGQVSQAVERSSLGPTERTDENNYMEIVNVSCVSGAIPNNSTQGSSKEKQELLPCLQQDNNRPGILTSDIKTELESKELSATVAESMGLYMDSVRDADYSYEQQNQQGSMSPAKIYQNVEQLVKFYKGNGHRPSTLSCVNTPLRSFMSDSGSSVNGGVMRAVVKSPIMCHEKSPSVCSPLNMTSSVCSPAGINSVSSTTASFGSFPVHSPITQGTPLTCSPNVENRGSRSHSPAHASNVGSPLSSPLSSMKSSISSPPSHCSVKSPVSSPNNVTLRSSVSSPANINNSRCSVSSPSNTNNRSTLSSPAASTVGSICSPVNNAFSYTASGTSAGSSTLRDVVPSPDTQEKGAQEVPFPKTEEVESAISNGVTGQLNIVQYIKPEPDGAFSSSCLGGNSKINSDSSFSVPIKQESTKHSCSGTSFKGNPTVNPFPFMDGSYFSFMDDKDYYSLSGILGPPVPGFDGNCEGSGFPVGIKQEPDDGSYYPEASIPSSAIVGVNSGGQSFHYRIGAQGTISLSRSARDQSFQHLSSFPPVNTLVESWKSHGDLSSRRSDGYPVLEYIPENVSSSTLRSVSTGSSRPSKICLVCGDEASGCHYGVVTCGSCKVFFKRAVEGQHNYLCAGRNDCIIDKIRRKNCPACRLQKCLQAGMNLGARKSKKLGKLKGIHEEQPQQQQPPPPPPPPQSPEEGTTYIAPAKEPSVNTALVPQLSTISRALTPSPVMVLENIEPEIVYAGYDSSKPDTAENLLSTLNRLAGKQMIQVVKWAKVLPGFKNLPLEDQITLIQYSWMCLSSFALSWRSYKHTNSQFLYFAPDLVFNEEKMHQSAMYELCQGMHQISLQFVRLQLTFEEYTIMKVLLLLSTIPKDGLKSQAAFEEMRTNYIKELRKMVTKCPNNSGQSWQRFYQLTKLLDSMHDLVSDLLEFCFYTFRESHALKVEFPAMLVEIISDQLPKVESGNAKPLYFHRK

SMILES | EC50 (Glucocorticoid receptor [1]) [nM] | Ki (Glucocorticoid receptor [2]) [nM] | EC50 (Glucocorticoid receptor [3]) [nM] | EC50 (Glucocorticoid receptor [4]) [nM] | inhibition [5] [%]
C[C@]1(C(=O)Nc2nccs2)CC2(C#N)c3ccccc3C1c1ccccc12 | > 5000 | 37.8 | 837 | > 10000 | –
CC1(C(=O)Nc2nccs2)CC2(Br)c3ccccc3C1c1ccccc12 (stereo not given) | 9.9 | – | 119 | 175 | –
CC1(C(=O)Nc2nccs2)CC2c3ccccc3C1([N+](=O)[O-])c1ccccc12 (stereo not given) | > 5000 | – | 1160 | > 10000 | –
CC12CC(C)(C(=O)Nc3nccs3)C(c3ccccc31)c1ccccc12 (stereo in doubt; 17a) | – | – | – | – | 49
CC1(C(=O)Nc2nccs2)CC2([N+](=O)[O-])c3ccccc3C1c1ccccc12 (stereo not given) | > 5000 | – | 1070 | > 10000 | –
CC12CC(C)(C(=O)Nc3nncs3)C(c3ccccc31)c1ccccc12 (stereo in doubt; 18) | 5.2 | – | 16.9 | > 10000 | –
CC1(C(=O)Nc2nccs2)CC2c3ccccc3C1(C#N)c1ccccc12 (stereo not given) | 678 | – | 874 | > 10000 | –
CC12CC(C)(C(=O)Nc3nncs3)C(c3ccccc31)c1ccccc12 (stereo in doubt; 18b) | 152 | 49.7 | 3830 | > 2500 | –
CC1(C(=O)Nc2ncc[nH]2)CC2c3ccccc3C1c1ccccc12 (stereo not given) | – | 92.6 | > 5000 | – | –
CC1(C(=O)Nc2nccs2)CC2(Cl)c3ccccc3C1c1ccccc12 (stereo not given) | 12.3 | – | 229 | 322 | –
CC1(C(=O)Nc2nccs2)CC2(C#N)c3ccccc3C1c1ccccc12 (stereo not given) | 426 | – | 331 | > 10000 | –
CC12CC(C)(C(=O)Nc3nncs3)C(c3ccccc31)c1ccccc12 (single isomer, unassigned; isomer A) | – | – | – | – | 53

Further lines, with some results ahead:

EC50 (Glucocorticoid receptor [1]) [nM] | Ki (Glucocorticoid receptor [2]) [nM] | EC50 (Glucocorticoid receptor [3]) [nM] | EC50 (Glucocorticoid receptor [4]) [nM] | SMILES | inhibition [5] [%]
– | 3.9 | > 2500 | – | CCC1(C(=O)Nc2nccs2)CC2c3ccccc3C1c1ccccc12 (stereo not given) | –
– | 8.7 | > 5000 | – | Cc1csc(NC(=O)C2(C)CC3c4ccccc4C2c2ccccc23)n1 (stereo not given) | –
– | 303 | > 5000 | – | O=C(Nc1nccs1)C1(CCO)CC2c3ccccc3C1c1ccccc12 (stereo not given) | –
– | 12.7 | 610 | – | Cc1cnc(NC(=O)C2(C)CC3c4ccccc4C2c2ccccc23)s1 (stereo in doubt; 3) | –
– | 5.4 | 295 | – | CC1(C(=O)Nc2nncs2)CC2c3ccccc3C1c1ccccc12 (stereo not given) | –
– | 22.6 | 923 | – | Cc1nc(NC(=O)C2(C)CC3c4ccccc4C2c2ccccc23)sc1C (stereo not given) | –
– | 26.2 | 544 | – | C[C@]1(C(=O)Nc2nccs2)CC2c3ccccc3C1c1ccccc12 | –
> 5000 | 67.8 | 800 | > 10000 | CC12CC(C)(C(=O)Nc3nccs3)C(c3ccccc31)c1ccccc12 (single isomer, unassigned; isomer B) | –
8.3 | – | 14.7 | 121 | CC12CC(C)(C(=O)Nc3nccs3)C(c3ccccc31)c1ccccc12 (stereo in doubt; 17) | –
– | 187 | 972 | – | Cc1cnc(NC(=O)C2(C)CC3c4ccccc4C2c2ccccc23)s1 (single isomer, unassigned; isomer B) | –
– | 82.5 | 1240 | – | CN(C(=O)C1(C)CC2c3ccccc3C1c1ccccc12)c1nccs1 (stereo not given) | –
– | 158 | > 5000 | – | CC1(C(=O)Nc2ccc([N+](=O)[O-])cc2O)CC2c3ccccc3C1c1ccccc12 (stereo not given) | –
